# Test results as given in patent publication US4574117A, “Stabilization of phenylalanine ammonia-lyase in a bioreactor using reducing agents” (Genex Corporation, priority 1984, dated 1986).
# How the values were obtained:
# [1] = molecular target: T1, phenylalanine ammonia-lyase (PAL) (Rhodotorula mucilaginosa, UniProt P10248); assay: Example 1: L-phenylalanine bioreaction with PAL-containing cells, 2-mercaptoethanol at 100, 500 and 1000 mg/liter; assay type: biochemical, Rhodotorula rubra; conditions: after 15 hours, 35° C., pH 10.5; for L-Phenylalanine Produced: ammonium sulfate
# T1 construct: endogenous in cells; host or cells: Rhodotorula rubra cells (aerobic fermentation, whole cells harvested by centrifugation)
# T1 sequence (P10248 1-713): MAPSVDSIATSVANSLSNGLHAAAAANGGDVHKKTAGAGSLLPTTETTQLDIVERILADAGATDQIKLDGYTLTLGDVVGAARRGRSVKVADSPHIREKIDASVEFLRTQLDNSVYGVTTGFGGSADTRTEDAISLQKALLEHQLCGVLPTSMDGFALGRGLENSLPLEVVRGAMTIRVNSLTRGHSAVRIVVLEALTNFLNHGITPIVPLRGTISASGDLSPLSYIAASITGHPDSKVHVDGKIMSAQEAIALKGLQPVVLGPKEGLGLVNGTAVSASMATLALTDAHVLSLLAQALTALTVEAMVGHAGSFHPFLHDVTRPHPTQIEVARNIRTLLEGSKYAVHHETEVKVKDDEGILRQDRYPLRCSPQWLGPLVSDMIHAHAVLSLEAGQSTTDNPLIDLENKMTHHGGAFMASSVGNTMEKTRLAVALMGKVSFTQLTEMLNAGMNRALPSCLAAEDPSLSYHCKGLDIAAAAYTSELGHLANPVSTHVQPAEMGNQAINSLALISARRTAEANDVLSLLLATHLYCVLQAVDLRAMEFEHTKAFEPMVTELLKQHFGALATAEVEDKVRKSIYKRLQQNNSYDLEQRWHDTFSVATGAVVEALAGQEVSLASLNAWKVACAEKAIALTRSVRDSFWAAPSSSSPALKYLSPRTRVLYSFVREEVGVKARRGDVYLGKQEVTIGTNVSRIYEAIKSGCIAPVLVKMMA
# Text: Microbial cells containing a high level of activity of phenylalanine ammonia-lyase (PAL) were produced by aerobic fermentation. A 14 liter fermentor containing 10 liters of nutrient medium was inoculated with a seed culture of Rhodotorula rubra. The nutrient medium consisted of: soy peptone 2.7%; casein hydrolysate (Sheffield NZ-Amine) 1.35%; and corn steep liquor 0.18%. The fermentor contents were aerated and agitated, and the pH was maintained at 6.0 by periodic additions of ammonia water or sulfuric acid. During the fermentation, the PAL activity of the cells was monitored, and when the PAL activity reached a maximum (approximately 22 hours after inoculation), the fermentation was stopped by shutting off the aeration and agitation. The vessel was de-aerated by sparging with nitrogen gas. The microbial cells were separated from the fermentation broth by centrifugation, and stored at 4° C. Four 14 liter vessels were each filled with 13 liters of a substrate solution containing: ammonia, 4 mole/liter; ammonium sulfate, 100 gram/liter; and trans-cinnamic acid, 10 gram/liter. The pH of the solution was 10.5, and the temperature was maintained at 35° C. The vessels were deaerated by sparging with nitrogen gas, and 2-mercaptoethanol was added to three of the vessels in amounts of 100, 500, and 1000 mg/liter. PAL-containing microbial cells were then added to all four vessels in the amount of 1.35 gram (dry basis) per liter. The vessels were agitated for one minute every three hours. Supplemental trans-cinnamic acid was added to the vessels in the amount of 2.5 gram/liter at 3, 6, 9, and 12 hours after the addition of cells. After 15 hours, the concentration of L-phenylalanine in the reaction mixture was measured, and the PAL activity of the cells was determined. The results, which are shown in Table I, indicate that the stability of PAL was enhanced by the reducing agent, with the result that a greater quantity of L-phenylanine was produced. The optimum concentration for 2-mercaptoethanol is between 100 and 1000 mg/liter.
# [2] = molecular target: T1, phenylalanine ammonia-lyase (PAL); assay: Example 2: bioreaction in ammonium carbonate or ammonium sulfate substrate solution with 2-mercaptoethanol; assay type: biochemical, Rhodotorula rubra; conditions: 600 mg/l 2-mercaptoethanol, after 15 hours
# Method: Four 14 liter vessels were each filled with 13 liters of substrate solution. In two of the vessels, the substrate solution contained: ammonia, 5 mole/liter; ammonium carbonate, 120 gram/liter; and trans-cinnamic acid, 10 gram/liter. The other two vessels contained a substrate solution composed of: ammonia, 4.2 mole/liter; ammonium sulfate, 75 gram/liter; and trans-cinnamic acid, 10 gram/liter. The pH in all four vessels was 10.5, and the temperature was maintained at 35° C. All four vessels were de-aerated by sparging with nitrogen gas. Finally, one vessel of each pair had 600 mg/liter of 2-mercaptoethanol added. The reaction was started by adding PAL-containing microbial cells to each of the four vessels in the amount of 1.7 gram (dry basis) per liter. (The microbial cells were produced by the method of Example 1.) The vessels were agitated for one minute every three hours. Supplemental trans-cinnamic acid was added to all four vessels in the amount of 2.5 gram/liter at 3, 6, 9, and 12 hours after the addition of cells. After 15 hours, the concentration of L-phenylalanine in the reaction mixtures was measured, and the PAL activity of the cells was determined.
# [3] = molecular target: T1, phenylalanine ammonia-lyase (PAL); assay: Example 3: optimum concentration of 2-mercaptoethanol, five vessels; assay type: biochemical, Rhodotorula rubra; conditions: for L-Phenylalanine Produced / PAL Activity (% of Activity): after 24 hours
# Method: The optimum concentration of 2-mercaptoethanol was determined by carrying out reactions in five vessels with varying concentrations of 2-mercaptoethanol. The procedures used were the same as those described in Examples 1 and 2, with the following modifications. The nutrient medium for the fermentation was composed of: yeast extract (Amber Laboratories, Amberex 1003) 1.35%; corn steep liquor 0.18%; and L-phenylalanine 2.7%. The substrate solution for L-phenylalanine production contained: ammonia 5.1 mole/liter; ammonium sulfate 120 gram/liter; and cinnamic acid 10 gram/liter, with 2.5 gram/liter added at 3, 6, 9, and 12 hours after the addition of cells. The quantity of cells added to each of the vessels was 1.6 gram (dry basis) per liter. After 24 hours, the L-phenylalanine concentration in the reaction mixture was measured, and the PAL activity of the cells was determined.
# [4] = molecular target: T1, phenylalanine ammonia-lyase (PAL); assay: Example 4: 300 gallon reactor bioreaction with 2-mercaptoethanol; assay type: biochemical, Rhodotorula rubra; conditions: 404 ml 2-mercaptoethanol in 900 liters substrate solution, after 53.5 hours, 30° C.
# Method: PAL-containing microbial cells were cultivated in three 250-liter fermentors, each containing 163 liters of nutrient medium. The medium was composed of: yeast extract (Amber Laboratories, Amberex 1003) 1.38%; beet molasses 4%; diammonium phosphate 0.18%; and L-phenylalanine 0.92%. The fermentor was inoculated with a shake flask culture of Rhodotorula rubra. The fermentation was carried out at 30° C. with aeration and agitation. The pH was maintained at 6.0 by periodic additions of ammonia water or sulfuric acid. During the fermentation, the PAL activity of the microbial cells was monitored, and when the PAL activity reached a maximum, at 28-30 hours after inoculation, the fermentations were stopped by shutting off the aeration and agitation. The vessels were de-aerated by sparging with nitrogen gas. Microbial cells were harvested by means of a Westfalia disc-bowl centrifuge. The combined yield of cells from all three fermentators was 5.04 kg (dry basis). Substrate solution for L-phenylalanine production was prepared as follows. […] The trans-cinnamic acid concentration in the reaction mixture was monitored at intervals of approximately two hours, and supplemental trans-cinnamic acid was added whenever necessary, to maintain a concentration of between 10 and 18 gram/liter. […]
# PAL = conditions: cited from earlier work
smiles,measurement,setting,value
OCCS [2-mercaptoethanol],PAL Activty (% of Initial),[1]; 100 mg/l 2-mercaptoethanol,31.2 % of Initial
same,L-Phenylalanine Produced,[1]; 100 mg/l 2-mercaptoethanol,7.34 gm/l
same,PAL Activty (% of Initial),[1]; 500 mg/l 2-mercaptoethanol,39.4 % of Initial
same,L-Phenylalanine Produced,[1]; 500 mg/l 2-mercaptoethanol,9.26 gm/l
same,PAL Activty (% of Initial),"[1]; 1,000 mg/l 2-mercaptoethanol",35.9 % of Initial
same,L-Phenylalanine Produced,"[1]; 1,000 mg/l 2-mercaptoethanol",8.54 gm/l
same,L-Phenylalanine Produced,[2]; ammonium carbonate,12.9 gm/l
same,PAL Activity (% of Initial),[2]; ammonium carbonate,46.6 % of Initial
same,L-Phenylalanine Produced,[2]; ammonium sulfate,10.8 gm/l
same,PAL Activity (% of Initial),[2]; ammonium sulfate,38.7 % of Initial
same,L-Phenylalanine Produced,[3]; 300 mg/l 2-mercaptoethanol,12.6 gram/l
same,PAL Activity (% of Activity),[3]; 300 mg/l 2-mercaptoethanol,27.5 % of Activity
same,L-Phenylalanine Produced,[3]; 400 mg/l 2-mercaptoethanol,14.6 gram/l
same,PAL Activity (% of Activity),[3]; 400 mg/l 2-mercaptoethanol,32.4 % of Activity
same,L-Phenylalanine Produced,[3]; 500 mg/l 2-mercaptoethanol,15.4 gram/l
same,PAL Activity (% of Activity),[3]; 500 mg/l 2-mercaptoethanol,34.2 % of Activity
same,L-Phenylalanine Produced,[3]; 600 mg/l 2-mercaptoethanol,14.8 gram/l
same,PAL Activity (% of Activity),[3]; 600 mg/l 2-mercaptoethanol,32.7 % of Activity
same,L-Phenylalanine Produced,[3]; 800 mg/l 2-mercaptoethanol,14.6 gram/l
same,PAL Activity (% of Activity),[3]; 800 mg/l 2-mercaptoethanol,31.7 % of Activity
same,optimum concentration of 2-mercaptoethanol,[3]; Example 3 conditions,approximately 500 mg/liter
same,"PAL activity of the cells in the reactor, of the initial activity",[4],27%
same,L-phenylalanine in the reaction mixture,[4]; ammonium carbonate,33.3 gram/liter
"CC[C@H](C)[C@H](N)C(=O)O [L-isoleucine, reference compound]",effect on PAL stability,PAL; extended the useful period of activity of the enzyme,stabilizing effect
O=C(O)/C=C/c1ccccc1 [t-cinnamic acid],rate of conversion of L-phenylalanine relative to the maximum rate,PAL; t-cinnamic acid 150 mM (substrate inhibition),one-half
